Source: patent publication US20100317698A1, “Polysubstituted Pyridinylaminoalkylene- and Pyridinyloxyalkylene-Cyclopropanamine Compounds, a Process for Their Preparation and Pharmaceutical Compositions Containing Them” (LES LABORATOIRES SERVIER, priority 2006, published 2010)
Structures can show the parent of a compound that is named as a salt.

Target: T1, type α4β2 central nicotinic receptors (Rattus norvegicus, UniProt P09483+P12390)
T1 construct: from tissue; host or cells: rat brain membranes
T1 sequence (P09483 31-630): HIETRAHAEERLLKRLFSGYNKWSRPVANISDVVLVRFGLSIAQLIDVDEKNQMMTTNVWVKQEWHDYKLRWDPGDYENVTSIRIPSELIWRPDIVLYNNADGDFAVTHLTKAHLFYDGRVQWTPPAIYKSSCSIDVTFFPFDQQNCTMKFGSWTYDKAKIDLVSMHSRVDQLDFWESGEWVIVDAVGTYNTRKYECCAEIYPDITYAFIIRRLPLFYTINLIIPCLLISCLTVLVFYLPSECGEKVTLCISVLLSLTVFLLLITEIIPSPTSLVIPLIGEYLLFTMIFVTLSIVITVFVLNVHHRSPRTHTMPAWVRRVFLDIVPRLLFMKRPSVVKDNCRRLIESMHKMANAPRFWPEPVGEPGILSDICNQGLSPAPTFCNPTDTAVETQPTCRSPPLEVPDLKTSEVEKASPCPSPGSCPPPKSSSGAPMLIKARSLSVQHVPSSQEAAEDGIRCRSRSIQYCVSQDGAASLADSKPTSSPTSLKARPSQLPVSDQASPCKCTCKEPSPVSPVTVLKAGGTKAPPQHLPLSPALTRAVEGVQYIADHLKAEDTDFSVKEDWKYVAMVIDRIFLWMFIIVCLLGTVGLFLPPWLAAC
T1 sequence (P12390 25-500): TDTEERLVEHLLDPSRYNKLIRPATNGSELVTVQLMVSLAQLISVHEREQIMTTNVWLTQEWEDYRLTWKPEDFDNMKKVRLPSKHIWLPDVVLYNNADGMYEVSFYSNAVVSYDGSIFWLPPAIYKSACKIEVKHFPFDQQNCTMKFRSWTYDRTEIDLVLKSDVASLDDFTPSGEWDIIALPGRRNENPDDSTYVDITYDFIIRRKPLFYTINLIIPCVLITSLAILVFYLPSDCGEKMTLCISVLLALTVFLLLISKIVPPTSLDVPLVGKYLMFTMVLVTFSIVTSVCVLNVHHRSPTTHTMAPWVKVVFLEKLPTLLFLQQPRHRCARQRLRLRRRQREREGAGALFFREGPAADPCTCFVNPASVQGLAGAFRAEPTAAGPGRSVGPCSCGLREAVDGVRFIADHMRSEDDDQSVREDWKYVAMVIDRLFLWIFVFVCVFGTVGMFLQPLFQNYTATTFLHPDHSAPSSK
Experiment: Displacement of binding of [3H]-cytisine to type α4β2 nicotinic receptors of rat brain
Conditions: rat brain membranes, read-out: Affinity (Ki, nM) for type α4β2 receptors
Experimental: This study, carried out according to the technique described in Molec. Pharmacol., 1990, 39; 9-12, is aimed at determining the affinity of compounds of the present invention for type […] central nicotinic receptors.
Membranes (250 μg/ml) of rat brain are incubated (2 hours, 20° C.) in the presence of a series of concentrations (0.01-10 μM) of each compound of the present invention (diluted starting from a 10 mM stock solution in DMSO) and [^3H]-cytisine (S.A.: 1184 GBq/mmol: 2 nM) in phosphate buffer (NaH2PO4 20 mM, pH 7.4); final volume: 250 μl. The non-specific binding is determined by incubating membranes in the presence of 10 μM of (−)nicotine. The affinity of the compounds of the present invention for type α4β2 central nicotinic receptors is characterised by determination of the Ki.

Row | Molecule | Ki
1 | CNC1(COc2cncc(-c3ccc(C)cc3)c2)CC1.Cl.Cl [Example 2, Methyl[1-({[5-(4-methylphenyl)pyridin-3-yl]oxy}methyl)cyclopropyl]amine dihydrochloride] | 8.5 nM
2 | NCC1(COc2cnc(Cl)c(-c3ccc(F)cc3)c2)CC1 [Example 26, [1-({[6-Chloro-5-(4-fluorophenyl)pyridin-3-yl]oxy}methyl)cyclopropyl]methylamine hydrochloride] | 0.3 nM
3 | [1-({[5-(3,5-Dichlorophenyl)pyridin-3-yl]oxy}methyl)cyclopropyl]methylamine dihydrochloride [Example 52] | 1.4 nM
4 | [1-({[5-(4-Methoxyphenyl)pyridin-3-yl]oxy}methyl)cyclopropyl]methylamine dihydrochloride [Example 11] | 0.8 nM
5 | [1-({[5-(4-Nitrophenyl)pyridin-3-yl]oxy}methyl)cyclopropyl]methylamine dihydrochloride [Example 6] | 2.3 nM
6 | [1-({[6-Chloro-5-(3-fluorophenyl)pyridin-3-yl]oxy}methyl)cyclopropyl]methylamine hydrochloride [Example 32] | 0.4 nM
7 | [1-({[6-Chloro-5-(4-methylphenyl)pyridin-3-yl]oxy}methyl)cyclopropyl]methylamine dihydrochloride [Example 10] | 0.7 nM

Tested on: not given
Experiment: not given
Conditions: not given

Row | melting point | Molecule
8 | 180 to 185 °C | CNC1(CNc2cnc(Cl)c(-c3cccnc3)c2)CC1.Cl.Cl.Cl
9 | 140 to 145 °C | CNC1(CNc2cnc(Cl)c(-c3cccc(C(=O)O)c3)c2)CC1.Cl.Cl
10 | 175 to 182 °C | CNC1(CNc2cnc(Cl)c(-c3ccc(C(=O)O)cc3)c2)CC1.Cl.Cl
11 | 190 to 196 °C | CNC1(CNc2cnc(Cl)c(-c3ccc(N)cc3)c2)CC1.Cl.Cl
12 | 138 to 145 °C | CNC1(CN(C)c2cnc(Cl)c(-c3ccc(C(=O)O)cc3)c2)CC1.Cl.Cl
13 | 110 to 120 °C | CNC1(CN(C)c2cnc(Cl)c(-c3ccncc3)c2)CC1.Cl.Cl
14 | 241 to 245 °C | CNC1(CNc2cnc(C)c(-c3ccc(C(=O)O)cc3)c2)CC1.Cl.Cl
15 | 240 to 248 °C | CNC1(CNc2cnc(C)c(-c3ccncc3)c2)CC1.Cl.Cl.Cl
16 | 190 to 200 °C | CNC1(CNc2cnc(C)c(-c3ccc(N)cc3)c2)CC1.Cl.Cl.Cl
17 | 182 to 187 °C | CNC1(CN(C)c2cnc(C)c(-c3ccncc3)c2)CC1.Cl.Cl.Cl
18 | 235 to 240 °C | CNC1(CN(C)c2cnc(C)c(-c3ccc(N)cc3)c2)CC1.Cl.Cl.Cl
19 | 145 to 150 °C | Cl.NCC1(COc2cnc(Cl)c(-c3ccc([N+](=O)[O-])cc3)c2)CC1
20 | 142 to 146 °C | CNC1(COc2cnc(Cl)c(-c3ccc(CO)cc3)c2)CC1.Cl.Cl
21 | 194 to 199 °C | Cc1ncc(OCC2(CN)CC2)cc1-c1ccc(Cl)cc1.Cl.Cl
22 | 223 to 227 °C | Cc1ncc(OCC2(CN)CC2)cc1-c1cccc(Cl)c1.Cl.Cl
23 | 238 to 242 °C | CNC1(COc2cnc(C)c(-c3cccc(C#N)c3)c2)CC1.Cl.Cl
24 | 220 to 224 °C | CNC1(COc2cnc(C)c(-c3ccc(C#N)cc3)c2)CC1.Cl.Cl
25 | 110 to 120 °C | CNC1(COc2cncc(-c3cccc(C#N)c3)c2)CC1.Cl.Cl
26 | 55 to 60 °C | Cl.NCC1(COc2cnc(F)c(-c3ccc(Cl)cc3)c2)CC1
27 | 126 to 130 °C | Cl.NCC1(COc2cnc(F)c(-c3cccc(Cl)c3)c2)CC1
28 | 90 to 105 °C | CNC1(COc2cnc(F)c(-c3ccc(C#N)cc3)c2)CC1.Cl
29 | 211 to 215 °C | CNC1(COc2cnc(F)c(-c3cccc(C#N)c3)c2)CC1.Cl
30 | 229 to 232 °C | Cl.NCC1(COc2cnc(Cl)c(-c3cccc([N+](=O)[O-])c3)c2)CC1

Row | melting point | Molecule
31 | 144 to 148 °C | CNC1(COc2cnc(Cl)c(-c3ccc(SC)cc3)c2)CC1.Cl.Cl
32 | 215 to 220 °C | COc1ccc(-c2cncc(OCC3(CN)CC3)c2)cc1.Cl.Cl
33 | 112 to 114 °C | CCc1ccc(-c2cc(OCC3(CN)CC3)cnc2Cl)cc1.Cl.Cl
34 | 130 to 132 °C | Cc1ccccc1-c1cc(OCC2(CN)CC2)cnc1Cl.Cl
35 | 152 to 154 °C | Cc1cccc(-c2cc(OCC3(CN)CC3)cnc2Cl)c1.Cl
36 | 182 to 184 °C | Cl.NCC1(COc2cnc(Cl)c(-c3cccc(Cl)c3)c2)CC1
37 | 228 to 232 °C | CNC1(COc2cnc(Cl)c(-c3cccc(C#N)c3)c2)CC1.Cl
38 | 138 to 140 °C | COc1cc(-c2cc(OCC3(CN)CC3)cnc2Cl)cc(OC)c1OC.Cl
39 | 182 to 188 °C | Cl.NCC1(COc2cnc(Cl)c(-c3cc(C(F)(F)F)cc(C(F)(F)F)c3)c2)CC1
40 | 140 to 142 °C | CNC1(COc2cnc(Cl)c(-c3cc(F)ccc3F)c2)CC1.Cl
41 | 140 to 142 °C | CNC1(COc2cnc(Cl)c(-c3cc(Cl)ccc3Cl)c2)CC1.Cl
42 | 186 to 188 °C | CNC1(COc2cnc(Cl)c(-c3cc(Cl)cc(Cl)c3)c2)CC1.Cl
43 | 182 to 186 °C | Cl.NCC1(COc2cnc(Cl)c(-c3c(Cl)cccc3Cl)c2)CC1
44 | 220 to 222 °C | CNC1(COc2cnc(Cl)c(-c3cccc(NC(C)=O)c3)c2)CC1.Cl
45 | 215 to 218 °C | Cc1cccc(-c2cncc(OCC3(CN)CC3)c2)c1.Cl.Cl
46 | 220 to 225 °C | Cl.Cl.NCC1(COc2cncc(-c3cccc([N+](=O)[O-])c3)c2)CC1
47 | 230 to 235 °C | Cl.Cl.NCC1(COc2cncc(-c3cccc(Cl)c3)c2)CC1
48 | 210 to 214 °C | Cl.Cl.NCC1(COc2cncc(-c3cccc(F)c3)c2)CC1
49 | 197 to 200 °C | CCc1ccc(-c2cncc(OCC3(CN)CC3)c2)cc1.Cl.Cl
50 | 192 to 196 °C | CNC1(COc2cncc(-c3ccccc3C)c2)CC1.Cl.Cl
51 | 188 to 192 °C | Cl.Cl.NCC1(COc2cncc(-c3cc(F)ccc3F)c2)CC1
52 | 116 to 120 °C | CNC1(COc2cncc(-c3cc(OC)c(OC)c(OC)c3)c2)CC1.Cl
53 | 195 to 200 °C | Cl.Cl.NCC1(COc2cncc(-c3cc(Cl)ccc3Cl)c2)CC1

Row | melting point | Molecule
54 | 132 to 136 °C | CNC1(COc2cncc(-c3cc(C(F)(F)F)cc(C(F)(F)F)c3)c2)CC1.Cl
55 | 185 to 190 °C | Cl.Cl.Cl.NCC1(COc2cncc(-c3cccc(N)c3)c2)CC1
56 | 158 to 161 °C | Cl.Cl.NCC1(COc2cnc(F)c(-c3cccc(N)c3)c2)CC1
57 | 222 to 228 °C | Cc1ncc(OCC2(CN)CC2)cc1-c1cccc(N)c1.Cl.Cl.Cl
58 | 146 to 148 °C | CCOC(=O)c1ccc(-c2cc(OCC3(NC)CC3)cnc2Cl)cc1.Cl.Cl
59 | 207 to 211 °C | COc1ccc(-c2cc(OCC3(N)CC3)cnc2Cl)cc1.Cl.Cl
60 | 208 to 210 °C | COc1ccc(-c2cc(OCC3(N(C)C)CC3)cnc2Cl)cc1.Cl
61 | 130 °C | CNC1(COc2cnc(Cl)c(-c3ccc(C(N)=O)cc3)c2)CC1.Cl
62 | 208 to 213 °C | Cl.Cl.NCC1(COc2cncc(-c3ccc(Cl)cc3)c2)CC1
63 | 211 to 215 °C | CNC1(COc2cnc(F)c(-c3ccc(C(=O)O)cc3)c2)CC1.Cl.Cl
64 | 210 to 215 °C | Cl.Cl.NCC1(COc2cnc(Cl)c(-c3cccnc3)c2)CC1
65 | 125 to 130 °C | Cl.Cl.NCC1(COc2cnc(Cl)c(-c3ccncc3)c2)CC1
66 | 240 to 243 °C | Cl.Cl.NCC1(COc2cnc(Cl)c(-c3ccc(N)cc3)c2)CC1
67 | 225 to 230 °C | Cl.Cl.NCC1(COc2cnc(F)c(-c3ccc(N)cc3)c2)CC1
68 | 216 to 220 °C | CNC1(COc2cnc(Cl)c(-c3ccc(O)cc3)c2)CC1.Cl.Cl
69 | 140 to 144 °C | CNC1(COc2cnc(Cl)c(-c3ccc(NC(=O)CCl)cc3)c2)CC1.Cl
70 | 172 to 176 °C | CNC1(COc2cnc(Cl)c(-c3ccc(N=C=S)cc3)c2)CC1.Cl
71 | 130 to 135 °C | Cl.Cl.NCC1(COc2cnc(Cl)c(-c3ccccc3)c2)CC1
72 | 220 to 225 °C | Cl.Cl.NCC1(COc2cnc(-c3ccc(Cl)cc3)c(-c3ccc(Cl)cc3)c2)CC1
73 | 215 to 220 °C | Cl.Cl.NCC1(COc2cnc(-c3ccc([N+](=O)[O-])cc3)c(-c3ccc([N+](=O)[O-])cc3)c2)CC1
74 | 205 to 208 °C | CNC1(COc2cnc(-c3ccc(C#N)cc3)c(-c3ccc(C#N)cc3)c2)CC1.Cl.Cl
75 | 245 to 250 °C | Cc1ncc(OCC2(CN)CC2)cc1-c1ccc(N)cc1.Cl.Cl.Cl
76 | 248 to 250 °C | CNC1(CNc2cncc(-c3cccc(C(=O)O)c3)c2)CC1.Cl.Cl

Row | Molecule | melting point
77 | CNC1(COc2cncc(-c3ccc(C)cc3)c2)CC1.Cl.Cl [Example 2, Methyl[1-({[5-(4-methylphenyl)pyridin-3-yl]oxy}methyl)cyclopropyl]amine dihydrochloride] | 218 to 223 °C
